Assay results from US7635716B2, “Substituted cyclopentanes or cyclopentanones as therapeutic agents” (Allergan, Inc., priority 2005, dated 2009).
Like-named read-outs stand apart in the source and are kept apart here.

Key:
hDP/Gqs5 = target: T1, hDP/Gqs5 (Homo sapiens, UniProt Q13258); assay: FLIPR calcium signal, HEK-293(EBNA) cells; type: cell-based
T1 construct: expressed in transfected cells; host or cells: HEK-293(EBNA) cells
T1 sequence (Q13258 1-359): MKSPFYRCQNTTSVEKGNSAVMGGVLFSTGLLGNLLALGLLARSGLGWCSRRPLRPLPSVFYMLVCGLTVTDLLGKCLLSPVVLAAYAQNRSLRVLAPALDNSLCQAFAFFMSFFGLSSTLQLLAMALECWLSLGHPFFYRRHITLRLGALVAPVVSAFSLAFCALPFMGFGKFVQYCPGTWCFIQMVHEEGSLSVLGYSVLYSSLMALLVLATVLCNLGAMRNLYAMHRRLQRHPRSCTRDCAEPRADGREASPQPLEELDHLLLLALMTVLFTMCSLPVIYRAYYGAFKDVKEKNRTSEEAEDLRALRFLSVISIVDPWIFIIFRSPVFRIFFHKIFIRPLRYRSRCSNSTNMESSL

[1] = tested on: laser-induced hypertensive monkeys; assay: Intraocular pressure (IOP) in laser-induced hypertensive monkeys; type: in vivo, monkey; details: Primates, topical, 0.1%, one single day dose, read-out: maximum IOP decrease from baseline (percent)
Experimental: (§1) (Z)-7-[(1R,2S,3R,5R)-5-Chloro-2-(3,5-dichloro-phenoxymethyl)-3-hydroxy-cyclopentyl]-hept-5-enoic acid (15b) was tested at multiple concentrations in normotensive dogs, dosing once daily for 5 days. At 0.05%, the maximum IOP decrease from baseline was 4.3 mmHg (30%) at 6 h; the maximum OSH score was 0.6 at 6 h. […] This compound was also tested in laser-induced hypertensive monkeys, using one single day dose. At 0.1%, the maximum IOP decrease from baseline was 6 mmHg (19%) at 6 h.
(§2) (Z)-7-[(1R,2S,3R,5R)-5-Chloro-2-(3,5-dichloro-phenoxymethyl)-3-hydroxy-cyclopentyl]-hept-5-enoic acid isopropyl ester (42b) was tested in normotensive dogs at 0.05%, dosing once daily for 5 days. The maximum intraocular pressure (IOP) decrease from baseline was 3 mmHg (19%) at 6 h; the maximum ocular surface hyperemia (OSH) score was 0.6 at 74 h. This compound was also tested in laser-induced hypertensive monkeys, using one single day dose. At 0.01%, the maximum IOP decrease from baseline was 6 mmHg (16%) at 6 h.

normotensive dogs [2] = assay: Ocular surface hyperemia (OSH) in normotensive dogs; type: in vivo, dog; set-up: maximum OSH score: scale not given here; details: dosing once daily for 5 days
Experimental: as §1, §2

normotensive dogs [3] = assay: Intraocular pressure (IOP) in normotensive dogs; type: in vivo, dog; details: Canis lupus familiaris, topical, 120 h, dosing once daily for 5 days, read-out: maximum IOP decrease from baseline (percent)
Experimental: as §1, §2

[4] = Table 1, first part, triplicate, read-out: functional data (EC50) hDP
[5] = Table 1, second part, quantity not given, values match functional data (EC50) of first part, read-out: Other Receptors hDP

EC50 (hDP/Gqs5; [4]) [µM]	EC50 (hDP/Gqs5; [5]) [µM]	maximum OSH score (normotensive dogs [2]; 0.05%)	time of maximum OSH score (normotensive dogs [2]; 0.05%) [h]	maximum OSH score (normotensive dogs [2]; 0.1%)	time of maximum OSH score (normotensive dogs [2]; 0.1%) [h]	SMILES	inhibition in vivo at 0.1 % [1] [%]	inhibition in vivo at 0.05 % (normotensive dogs [3]; 0.05%) [%]	inhibition in vivo at 0.1 % (normotensive dogs [3]; 0.1%) [%]
> 10	> 10					O=C(O)CCCCCC[C@H]1C(=O)CC[C@@H]1COc1ccccc1 [Example 6, 7-((1R,5S)-2-Oxo-5-phenoxymethyl-cyclopentyl)-heptanoic acid]			
> 10	> 10					O=C(O)CCC/C=C\C[C@@H]1[C@@H](COc2ccccc2)[C@H](O)C[C@H]1Cl [Example 8, (Z)-7-((1R,2S,3R,5R)-5-Chloro-3-hydroxy-2-phenoxymethyl-cyclopentyl)-hept-5-enoic acid]			
> 10	> 10					O=C(O)CCCCCC[C@@H]1[C@@H](COc2ccccc2)[C@H](O)C[C@H]1Cl [Example 10, 7-((1R,2S,3R,5R)-5-Chloro-3-hydroxy-2-phenoxymethyl-cyclopentyl)-heptanoic acid]			
> 10	> 10	0.6	6	1.3	6	O=C(O)CCC/C=C\C[C@@H]1[C@@H](COc2cc(Cl)cc(Cl)c2)[C@H](O)C[C@H]1Cl [Example 12, (Z)-7-[(1R,2S,3R,5R)-5-Chloro-2-(3,5-dichloro-phenoxymethyl)-3-hydroxy-cyclopentyl]-hept-5-enoic acid]	19	30	34
> 10	> 10					O=C(O)CCCCCC[C@@H]1[C@@H](COc2cc(Cl)cc(Cl)c2)[C@H](O)C[C@H]1Cl [Example 14, 7-[(1R,2S,3R,5R)-5-Chloro-2-(3,5-dichloro-phenoxymethyl)-3-hydroxy-cyclopentyl]-heptanoic acid]			
